Results: patent US8871753B2, “Macrocyclic compounds and their use as kinase inhibitors” (Incyte Corporation, priority 2008, dated 2014)
Where a name gives a salt, the structure may show the parent alone.

Columns and labels:
Format in all cases: biochemical
[1] = biological target: T1, human JAK1 (a.a. 837-1142) (Homo sapiens, UniProt P23458); assay: In vitro JAK kinase assay (HTRF, phosphorylation of a biotinylated peptide), JAK1; details: Table B1; read-out: JAK1 IC50
T1 construct: human JAK1 (a.a. 837-1142); His tag (N); made in house; host or cells: insect cells (baculovirus)
Method in brief: (§1)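 Kinase reactions ran at room temperature for 1 h with ATP matched per isoform (JAK1 90 μM, JAK2 30 μM, JAK3 3 μM). After an EDTA stop, the phosphorylated biotin-peptide was read by HTRF using Eu-Py20 and SA-APC after 40 min binding.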

[2] = biological target: T2, human JAK2 (a.a. 828-1132) (Homo sapiens, UniProt O60674); assay: In vitro JAK kinase assay (HTRF, phosphorylation of a biotinylated peptide), JAK2; details: Table B1
T2 construct: JAK2 (a.a. 828-1132); His tag (N); made in house; host or cells: insect cells (baculovirus)
Method in brief: as §1

[3] = biological target: T3, human JAK3 (a.a. 781-1124) (Homo sapiens, UniProt P52333); assay: In vitro JAK kinase assay (HTRF, phosphorylation of a biotinylated peptide), JAK3; details: Table B1
T3 construct: JAK3 (a.a. 781-1124); His tag (N); made in house; host or cells: insect cells (baculovirus)
Method in brief: as §1

[4] = biological target: TYK2 (Homo sapiens, UniProt P29597); assay: TYK2 kinase inhibition (Table A1); details: Table B1
[5] = biological target: T4, Recombinant Human Anaplastic Lymphoma Kinase (Homo sapiens, UniProt Q9UM73); assay: ALK HTRF kinase assay; details: Table B1; cells without percent sign
T4 construct: purchased Invitrogen, Carlsbad, Calif
Method in brief: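 TR-FRET read-out (Eu anti-pTyr antibody + streptavidin-APC) of biotin-peptide phosphorylation by recombinant human enzyme; IC50 by sigmoidal fit with top/bottom baselines and Hill slope.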

T3 sequence (P52333 781-1124): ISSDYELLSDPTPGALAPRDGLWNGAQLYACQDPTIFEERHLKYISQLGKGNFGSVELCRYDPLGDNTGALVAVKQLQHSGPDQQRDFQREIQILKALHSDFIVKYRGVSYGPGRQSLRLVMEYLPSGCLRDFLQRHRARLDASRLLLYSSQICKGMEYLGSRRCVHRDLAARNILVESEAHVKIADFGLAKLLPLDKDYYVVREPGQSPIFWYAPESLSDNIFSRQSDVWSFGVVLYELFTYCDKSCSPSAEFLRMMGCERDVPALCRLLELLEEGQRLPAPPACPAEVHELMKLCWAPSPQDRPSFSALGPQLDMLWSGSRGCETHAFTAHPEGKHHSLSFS
T2 sequence (O60674 828-1132): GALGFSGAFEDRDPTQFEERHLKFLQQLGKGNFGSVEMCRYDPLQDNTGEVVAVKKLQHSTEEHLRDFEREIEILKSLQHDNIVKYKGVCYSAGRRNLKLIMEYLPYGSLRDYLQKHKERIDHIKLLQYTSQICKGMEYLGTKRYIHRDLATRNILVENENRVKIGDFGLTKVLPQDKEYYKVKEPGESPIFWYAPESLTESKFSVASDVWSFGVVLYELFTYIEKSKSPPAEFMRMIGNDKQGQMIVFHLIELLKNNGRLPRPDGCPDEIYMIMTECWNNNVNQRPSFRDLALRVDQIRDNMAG
Sequence of TYK2 (P29597 whole entry): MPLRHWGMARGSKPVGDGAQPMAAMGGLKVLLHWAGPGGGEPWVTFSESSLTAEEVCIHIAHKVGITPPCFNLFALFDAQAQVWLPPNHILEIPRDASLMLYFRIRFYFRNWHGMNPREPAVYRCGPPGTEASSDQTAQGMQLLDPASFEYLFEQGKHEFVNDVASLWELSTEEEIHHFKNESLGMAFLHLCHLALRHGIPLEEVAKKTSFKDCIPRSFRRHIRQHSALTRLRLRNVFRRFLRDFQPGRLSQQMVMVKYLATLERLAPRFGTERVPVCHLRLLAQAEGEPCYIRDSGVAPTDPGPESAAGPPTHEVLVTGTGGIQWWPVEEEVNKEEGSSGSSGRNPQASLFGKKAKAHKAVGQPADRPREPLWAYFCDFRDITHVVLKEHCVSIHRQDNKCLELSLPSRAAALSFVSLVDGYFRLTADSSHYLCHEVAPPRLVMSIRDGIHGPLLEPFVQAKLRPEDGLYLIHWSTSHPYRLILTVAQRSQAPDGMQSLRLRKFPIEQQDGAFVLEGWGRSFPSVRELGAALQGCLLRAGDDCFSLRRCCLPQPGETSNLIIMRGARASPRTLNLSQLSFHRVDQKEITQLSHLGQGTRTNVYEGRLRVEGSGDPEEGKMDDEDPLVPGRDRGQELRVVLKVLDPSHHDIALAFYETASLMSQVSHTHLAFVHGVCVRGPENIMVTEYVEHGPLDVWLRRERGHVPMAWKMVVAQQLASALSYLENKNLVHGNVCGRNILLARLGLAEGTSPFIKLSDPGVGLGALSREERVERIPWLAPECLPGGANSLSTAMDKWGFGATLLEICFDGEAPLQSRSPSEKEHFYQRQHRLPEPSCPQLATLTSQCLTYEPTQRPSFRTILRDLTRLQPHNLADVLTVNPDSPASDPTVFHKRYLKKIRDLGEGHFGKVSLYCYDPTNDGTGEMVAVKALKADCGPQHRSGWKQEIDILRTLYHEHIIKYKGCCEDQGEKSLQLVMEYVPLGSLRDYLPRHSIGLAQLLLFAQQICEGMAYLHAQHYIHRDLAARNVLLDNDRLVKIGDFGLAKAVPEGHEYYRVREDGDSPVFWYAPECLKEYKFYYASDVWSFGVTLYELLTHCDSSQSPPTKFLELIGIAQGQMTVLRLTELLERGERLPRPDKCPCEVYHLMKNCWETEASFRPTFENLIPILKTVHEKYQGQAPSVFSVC
T1 sequence (P23458 849-1154): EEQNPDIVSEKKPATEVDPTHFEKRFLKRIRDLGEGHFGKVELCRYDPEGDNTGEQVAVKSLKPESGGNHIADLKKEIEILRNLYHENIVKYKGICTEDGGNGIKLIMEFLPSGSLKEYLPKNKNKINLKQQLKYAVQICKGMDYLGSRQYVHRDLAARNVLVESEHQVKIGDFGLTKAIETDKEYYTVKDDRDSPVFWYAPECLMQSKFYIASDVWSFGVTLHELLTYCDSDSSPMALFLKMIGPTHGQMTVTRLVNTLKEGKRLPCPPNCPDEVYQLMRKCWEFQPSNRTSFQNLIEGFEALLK
T4 sequence (Q9UM73 19-1620): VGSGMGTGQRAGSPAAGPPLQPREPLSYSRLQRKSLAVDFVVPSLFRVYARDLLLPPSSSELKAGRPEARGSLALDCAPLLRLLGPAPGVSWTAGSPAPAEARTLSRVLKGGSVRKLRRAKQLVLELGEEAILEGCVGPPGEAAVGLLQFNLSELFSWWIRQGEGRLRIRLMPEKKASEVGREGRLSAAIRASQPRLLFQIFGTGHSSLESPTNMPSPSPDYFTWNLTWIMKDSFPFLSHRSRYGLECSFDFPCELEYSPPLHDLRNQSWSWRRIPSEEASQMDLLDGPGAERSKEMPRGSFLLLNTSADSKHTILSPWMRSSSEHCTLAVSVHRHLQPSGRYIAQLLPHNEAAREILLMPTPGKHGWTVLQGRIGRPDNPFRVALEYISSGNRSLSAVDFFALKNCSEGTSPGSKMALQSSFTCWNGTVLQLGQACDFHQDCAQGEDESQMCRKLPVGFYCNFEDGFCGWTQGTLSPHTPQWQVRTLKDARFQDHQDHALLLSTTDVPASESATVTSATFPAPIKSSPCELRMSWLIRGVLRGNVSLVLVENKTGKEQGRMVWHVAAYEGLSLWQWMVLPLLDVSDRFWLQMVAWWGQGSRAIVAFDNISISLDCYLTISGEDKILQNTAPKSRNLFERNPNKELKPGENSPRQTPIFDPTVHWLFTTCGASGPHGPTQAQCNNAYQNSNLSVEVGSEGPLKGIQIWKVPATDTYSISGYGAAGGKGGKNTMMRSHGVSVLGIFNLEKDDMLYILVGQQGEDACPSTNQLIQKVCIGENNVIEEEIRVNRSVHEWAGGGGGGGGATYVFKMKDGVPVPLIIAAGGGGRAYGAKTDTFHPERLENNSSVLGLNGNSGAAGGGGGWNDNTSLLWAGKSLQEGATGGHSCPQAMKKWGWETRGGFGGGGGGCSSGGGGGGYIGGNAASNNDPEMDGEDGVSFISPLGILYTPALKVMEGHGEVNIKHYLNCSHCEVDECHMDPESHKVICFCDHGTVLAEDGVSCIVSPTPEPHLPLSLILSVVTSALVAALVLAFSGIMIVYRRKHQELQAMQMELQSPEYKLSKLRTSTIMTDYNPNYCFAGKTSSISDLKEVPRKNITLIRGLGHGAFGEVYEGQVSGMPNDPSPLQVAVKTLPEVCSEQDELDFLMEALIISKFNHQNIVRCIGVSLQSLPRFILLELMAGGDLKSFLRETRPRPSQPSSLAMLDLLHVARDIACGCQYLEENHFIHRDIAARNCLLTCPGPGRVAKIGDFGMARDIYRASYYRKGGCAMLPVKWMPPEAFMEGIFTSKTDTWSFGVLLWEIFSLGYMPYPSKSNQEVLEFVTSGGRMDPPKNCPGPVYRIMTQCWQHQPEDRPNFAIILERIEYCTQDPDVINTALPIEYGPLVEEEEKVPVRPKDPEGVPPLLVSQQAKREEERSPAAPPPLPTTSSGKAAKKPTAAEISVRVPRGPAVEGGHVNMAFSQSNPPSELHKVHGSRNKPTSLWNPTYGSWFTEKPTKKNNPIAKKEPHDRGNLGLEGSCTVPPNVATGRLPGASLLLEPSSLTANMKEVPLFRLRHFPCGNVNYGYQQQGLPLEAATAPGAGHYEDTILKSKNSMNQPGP

Row | SMILES | IC50 [1] | IC50 [2] | IC50 [3] | IC50 [4] | IC50 [5]
1 | O=C(Cc1ccccc1)Nc1ccc2cc1CCc1cccc(c1)Nc1ncc(Cl)c(n1)N2 [Example B32, N-[6-Chloro-2,4,8,22-tetraazatetracyclo[14.3.1.1(3,7).1(9,13)]docosa-1(20), 3(22),4,6,9(21),10,12,16,18-nonaen-12-yl]-2-phenylacetamide trifluoroacetate] | 2.8 nM | 1.6 nM | 5.5 nM | 2.7 nM | 940 nM
2 | O=C(Nc1ccc2cc1CCc1cccc(c1)Nc1ncc(Cl)c(n1)N2)c1ccco1 [Example B33, N-[6-Chloro-2,4,8,22-tetraazatetracyclo[14.3.1.1(3,7).1(9,13)]docosa-1(20), 3(22),4,6,9(21),10,12,16,18-nonaen-12-yl]-2-furamide trifluoroacetate] | 2.1 nM | 2.6 nM | 44 nM | 9.7 nM | 820 nM
3 | Cc1ccccc1C(=O)Nc1ccc2cc1CCc1cccc(c1)Nc1ncc(Cl)c(n1)N2 [Example B35, N-[6-Chloro-2,4,8,22-tetraazatetracyclo[14.3.1.1(3,7).1(9,13)]docosa-1(20), 3(22),4,6,9(21),10,12,16,18-nonaen-12-yl]-2-methylbenzamide trifluoroacetate] | 0.6 nM | 0.35 nM | 1.4 nM | 1.3 nM | 76 nM
4 | Cc1noc(C)c1C(=O)Nc1ccc2cc1CCc1cccc(c1)Nc1ncc(Cl)c(n1)N2 [Example B40, N-[6-Chloro-2,4,8,22-tetraazatetracyclo[14.3.1.1(3,7).1(9,13)]docosa-1(20), 3(22),4,6,9(21),10,12,16,18-nonaen-12-yl]-3,5-dimethylisoxazole-4-carboxamide trifluoroacetate] | 1.4 nM | 0.55 nM | 3.6 nM | 2.1 nM | 430 nM
5 | O=C(Nc1ccc2cc1CCc1cccc(c1)Nc1ncc(Cl)c(n1)N2)c1ccccc1Cl [Example B41, 2-Chloro-N-[6-chloro-2,4,8,22-tetraazatetracyclo[14.3.1.1(3,7).1(9,13)]docosa-1(20),3(22),4,6,9(21),10,12,16,18-nonaen-12-yl]benzamide hydrochloride] | 1.7 nM | 0.63 nM | 6.5 nM | 2.3 nM | 140 nM
6 | O=C(Nc1ccc2cc1CCc1cccc(c1)Nc1ncc(Cl)c(n1)N2)c1ccc(Cl)cc1 [Example B43, 4-Chloro-N-[6-chloro-2,4,8,22-tetraazatetracyclo[14.3.1.1(3,7).1(9,13)]docosa-1(20),3(22),4,6,9(21),10,12,16,18-nonaen-12-yl]benzamide hydrochloride] | 0.79 nM | 1.1 nM | 6.7 nM | 2.9 nM | 170 nM
7 | CC(=O)Nc1ccc(C(=O)Nc2ccc3cc2CCc2cccc(c2)Nc2ncc(Cl)c(n2)N3)cc1 [Example B45, 4-(Acetylamino)-N-[6-chloro-2,4,8,22-tetraazatetracyclo[14.3.1.1(3,7).1(9,13)]docosa-1(20),3(22),4,6,9(21),10,12,16,18-nonaen-12-yl]benzamide trifluoroacetate] | 0.88 nM | 0.6 nM | 3.7 nM | 0.53 nM | 95 nM

Continued by falling IC50 [1], values first:

Row | IC50 [1] | IC50 [2] | IC50 [3] | IC50 [4] | IC50 [5] | SMILES
8 | 13 nM | 7.7 nM | 42 nM | 21 nM | > 1000 nM | COc1ccccc1C(=O)Nc1ccc2cc1CCc1cccc(c1)Nc1ncc(Cl)c(n1)N2 [Example B36, N-[6-Chloro-2,4,8,22-tetraazatetracyclo[14.3.1.1(3,7).1(9,13)]docosa-1(20), 3(22),4,6,9(21),10,12,16,18-nonaen-12-yl]-2-methoxybenzamide trifluoroacetate]
9 | 13 nM | 2.9 nM | 48 nM | 22 nM | 300 nM | O=C(Nc1ccc2cc1CCc1cccc(c1)Nc1ncc(Cl)c(n1)N2)c1cnccn1 [Example B44, N-[6-Chloro-2,4,8,22-tetraazatetracyclo[14.3.1.1(3,7).1(9,13)]docosa-1(20), 3(22),4,6,9(21),10,12,16,18-nonaen-12-yl]pyrazine-2-carboxamide bis(trifluoroacetate)]
10 | 7.6 nM | 8.3 nM | 87 nM | 21 nM | > 10000 nM | O=C(Nc1ccc2cc1CCc1cccc(c1)Nc1ncc(Cl)c(n1)N2)c1ccccn1 [Example B37, N-[6-Chloro-2,4,8,22-tetraazatetracyclo[14.3.1.1(3,7).1(9,13)]docosa-1(20), 3(22),4,6,9(21),10,12,16,18-nonaen-12-yl]pyridine-2-carboxamide bis(trifluoroacetate)]
11 | 2.5 nM | 2.3 nM | 9.7 nM | 3.6 nM | 330 nM | Cc1cccc(C(=O)Nc2ccc3cc2CCc2cccc(c2)Nc2ncc(Cl)c(n2)N3)c1 [Example B46, N-[6-Chloro-2,4,8,22-tetraazatetracyclo[14.3.1.1(3,7).1(9,13)]docosa-1(20), 3(22),4,6,9(21),10,12,16,18-nonaen-12-yl]-3-methylbenzamide trifluoroacetate]
12 | 1.7 nM | 0.75 nM | 7 nM | 3.9 nM | 310 nM | O=C(Nc1ccc2cc1CCc1cccc(c1)Nc1ncc(Cl)c(n1)N2)c1cccc(Cl)c1 [Example B42, 3-Chloro-N-[6-chloro-2,4,8,22-tetraazatetracyclo[14.3.1.1(3,7).1(9,13)]docosa-1(20),3(22),4,6,9(21),10,12,16,18-nonaen-12-yl]benzamide hydrochloride]
13 | 1.4 nM | 0.26 nM | 4 nM | 0.97 nM | 210 nM | O=C(Nc1ccc2cc1CCc1cccc(c1)Nc1ncc(Cl)c(n1)N2)c1ccccc1F [Example B38, N-[6-Chloro-2,4,8,22-tetraazatetracyclo[14.3.1.1(3,7).1(9,13)]docosa-1(20), 3(22),4,6,9(21),10,12,16,18-nonaen-12-yl]-2-fluorobenzamide trifluoroacetate]
14 | 0.85 nM | 1 nM | 13 nM | 5.6 nM | 470 nM | O=C(Nc1ccc2cc1CCc1cccc(c1)Nc1ncc(Cl)c(n1)N2)c1cccs1 [Example B34, N-[6-Chloro-2,4,8,22-tetraazatetracyclo[14.3.1.1(3,7).1(9,13)]docosa-1(20),3(22),4,6,9(21),10,12,16,18-nonaen-12-yl]thiophene-2-carboxamide trifluoroacetate]
15 | 0.7 nM | 1.5 nM | 9.5 nM | 3.2 nM | 180 nM | Cc1ccc(C(=O)Nc2ccc3cc2CCc2cccc(c2)Nc2ncc(Cl)c(n2)N3)cc1 [Example B47, N-[6-Chloro-2,4,8,22-tetraazatetracyclo[14.3.1.1(3,7).1(9,13)]docosa-1(20), 3(22),4,6,9(21),10,12,16,18-nonaen-12-yl]-4-methylbenzamide trifluoroacetate]
16 | 0.2 nM | 0.12 nM | 2.7 nM | 0.66 nM | 86 nM | O=C(Nc1ccc2cc1CCc1cccc(c1)Nc1ncc(Cl)c(n1)N2)c1ccncc1 [Example B39, N-[6-Chloro-2,4,8,22-tetraazatetracyclo[14.3.1.1(3,7).1(9,13)]docosa-1(20), 3(22),4,6,9(21),10,12,16,18-nonaen-12-yl]isonicotinamide bis(trifluoroacetate)]
